{"source": "patent US20120058198A1", "about": "“METHODS FOR TREATING AND PREVENTING PNEUMONIA AND VENTILATOR-ASSOCIATED TRACHEOBRONCHITIS” (PULMATRIX, INC., priority 2009, published 2012)", "key": {"[1]": {"system": "Serotype 3 Streptococcus pneumoniae", "test": "Mouse S. pneumoniae infection model, nebulized calcium:sodium formulations 2 hours before infection", "format": "in vivo", "settings": "ampicillin synergy study; nebulized 2 h before infection; ~0.72 mg Ca/kg, ampicillin ~3 mg/kg", "description": "Unless otherwise stated, exposure times were 3 minutes in duration. […] CFU were enumerated the following day."}, "bacteria": {"system": "bacteria", "test": "Pass through assay, calcium chloride dose dependence (bacterium not named)", "format": "cell-based", "settings": "amount delivered to mimetic, between the […] and […] solutions; from other analyses", "description": "In these studies, the number of exposures via nebulization was different, making direct comparisons difficult. […] In this study, a single dose of each formulation was delivered to the apical surface of sodium alginate mimetic and bacteria were added immediately after exposure. […] In contrast, the 0.12M and 0.38M treatments had no effect.\nAll of the formulations tested above were formulated in isotonic saline. Thus, the inhibitory effects seen could be caused by the dual action of sodium and calcium ions in concert or alternatively, the effect could be driven entirely by calcium. To differentiate between these hypotheses, we tested additional calcium formulations based in water rather than saline."}}, "data": [{"smiles": "CC1(C)S[C@@H]2[C@H](NC(=O)[C@H](N)c3ccccc3)C(=O)N2[C@H]1C(=O)O", "note": "[ampicillin]", "values": [{"measurement": "reduction in lung bacterial titers relative to saline control", "setting": "[1]", "value": 33, "unit": "fold"}]}, {"smiles": "[Ca+2].[Cl-].[Cl-]", "note": "[calcium chloride]", "values": [{"measurement": "critical concentration of calcium needed for the inhibition of bacteria", "setting": "bacteria", "value": "3-4 μg of calcium per cm^2"}]}]}
